These are literature values, as cited in patent EP3520802A1, “PROCESS FOR EXTRACTING CURCUMINOIDS” (EFESON - Chemical Research & Engineering Development, priority 2018, dated 2019).

The conditions of the data set: non-clustered curcuminoid, usual value stated as background.

With `COc1cc(/C=C/C(=O)CC(=O)/C=C/c2ccc(O)c(OC)c2)ccc1O` [Curcumin I, curcumin], the logP result is listed as “around 2.90”.
